Tests used:
[1] = compound: T1, CN1CC[C@H](c2c(O)cc(O)c3c(=O)cc(-c4ccccc4Cl)oc23)[C@H](O)C1 [Flavopiridol]
[2] = compound: COc1cccc2c1C(=O)c1c(O)c3c(c(O)c1C2=O)C[C@@](O)(C(=O)CO)C[C@@H]3O[C@H]1C[C@H](N)[C@H](O)[C@H](C)O1 [Doxorubicin]
[3] = compound: CC(C)NC[C@@H](C(=O)N1CCN(c2ncnc3c2[C@H](C)C[C@H]3O)CC1)c1ccc(Cl)cc1 [Ipatasertib/GDC0068]
[4] = compound: CCNC(=O)c1noc(-c2cc(C(C)C)c(O)cc2O)c1-c1ccc(CN2CCOCC2)cc1 [Luminespib/NVP-AUY922]
[5] = compound: O=C(c1cc(Cc2n[nH]c(=O)c3ccccc23)ccc1F)N1CCN(C(=O)C2CC2)CC1 [Olaparib/AZD2281]
[6] = compound: CN(C)CC[C@H](CSc1ccccc1)Nc1ccc(S(=O)(=O)NC(=O)c2ccc(N3CCN(Cc4ccccc4-c4ccc(Cl)cc4)CC3)cc2)cc1[N+](=O)[O-] [ABT-737]
[7] = compound: CC(=O)O[C@H]1C(=O)[C@@]2(C)[C@H]([C@H](OC(=O)c3ccccc3)[C@]3(O)C[C@H](OC(=O)[C@H](O)[C@@H](NC(=O)c4ccccc4)c4ccccc4)C(C)=C1C3(C)C)[C@]1(OC(C)=O)CO[C@@H]1C[C@@H]2O [Paclitaxel]
[8] = compound: Cc1nc(-c2cn3c(n2)-c2ccc(-c4cnn(C(C)(C)C(N)=O)c4)cc2OCC3)n(C(C)C)n1 [Taselisib/GDC0032]
[9] = compound: CN(C)C/C=C/C(=O)Nc1ccc(O[C@@H]2CCC[C@@H](Nc3ncc(Cl)c(-c4c[nH]c5ccccc45)n3)C2)cc1 [BSJ-01-175]
[10] = compound: T1, Flavopiridol; assay: GR value, 72 h; higher = faster growth (1 = untreated, <0 = killing);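 further: breast cancer and non-malignant breast epithelial lines, nine half-log doses, viable cells counted by Hoechst and LIVE/DEAD dye imaging versus time-zero plates and DMSO controls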
[11] = compound: CN(C)C(=O)c1cc2cnc(Nc3ccc(N4CCNCC4)cn3)nc2n1C1CCCC1 [LEE011/Ribociclib]; assay: as above
[12] = compound: CCN1CCN(Cc2ccc(Nc3ncc(F)c(-c4cc(F)c5nc(C)n(C(C)C)c5c4)n3)nc2)CC1; assay: as above
[13] = compound: C=CC(=O)Nc1ccc(C(=O)Nc2[nH]nc3c2CN(C(=O)N[C@H](CN(C)C)c2ccccc2)C3(C)C)cc1 [YKL-5-124]; assay: as above
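Wherever GR50, 72 h is given: breast cancer and non-malignant breast epithelial cell lines, Deep Dye Drop or Dye Drop imaging, nine half-log doses, GR normalized to time-zero plates and DMSO-only controls.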

HCC70
GR50, 72 h [1]: 0.0784 µM
GR50, 72 h [2]: 0.0108 µM
GR50, 72 h [3]: 0.14 µM
GR50, 72 h [4]: 0.00765 µM
GR50, 72 h [5]: > 10 µM
GR50, 72 h [6]: 2.78 µM
GR50, 72 h [7]: 0.00134 µM
GR50, 72 h [8]: 0.161 µM
GR50, 72 h [9]: 0.0192 µM
GR value ([10]; 0.0001 µM): 1.05 GR
GR value ([10]; 0.0003162 µM): 1.01 GR
GR value ([10]; 0.001 µM): 1.1 GR
GR value ([10]; 0.003162 µM): 1.16 GR
GR value ([10]; 0.01 µM): 0.998 GR
GR value ([10]; 0.03162 µM): 0.791 GR
GR value ([10]; 0.1 µM): 0.371 GR
GR value ([10]; 0.3162 µM): -0.694 GR
GR value ([10]; 1 µM): -0.815 GR
GR value ([11]; 0.001 µM): 1.03 GR
GR value ([11]; 0.003162 µM): 1.17 GR
GR value ([11]; 0.01 µM): 1.01 GR
GR value ([11]; 0.03162 µM): 1.04 GR
GR value ([11]; 0.1 µM): 1.09 GR
GR value ([11]; 0.3162 µM): 1.03 GR
GR value ([11]; 1 µM): 1.06 GR
GR value ([11]; 3.162 µM): 1.03 GR
GR value ([11]; 10 µM): 1.05 GR
GR value ([12]; 0.001 µM): 1.06 GR
GR value ([12]; 0.003162 µM): 1.38 GR
GR value ([12]; 0.01 µM): 1.24 GR
GR value ([12]; 0.03162 µM): 1.18 GR
GR value ([12]; 0.1 µM): 1.2 GR
GR value ([12]; 0.3162 µM): 1.06 GR
GR value ([12]; 1 µM): 0.852 GR
GR value ([12]; 3.162 µM): -0.0922 GR
GR value ([12]; 10 µM): -0.82 GR
GR value ([13]; 0.001 µM): -0.0339 GR
GR value ([13]; 0.003162 µM): -0.217 GR
GR value ([13]; 0.01 µM): -0.27 GR
GR value ([13]; 0.03162 µM): -0.419 GR
